Source: patent publication US5612341A, “Brominated hexahydroxybiphenyl derivatives” (Biotech Research Laboratories, priority 1995, dated 1997)
Values after ≈ are worked out from the molar mass of the structure shown. Where two headings read alike, the source gives them in different places.

What was measured:
HIV-1 (IIIB isolate) [1] = conditions: cited from earlier work
H9 T cell line = assay: Toxicity to uninfected H9 cells (cell count); assay type: cell-based
Procedure: (§1) The H9 T cell line was maintained in continuous culture with complete medium (RPMI and 10% fetal calf serum) at 5% CO2 and 37° C. and was used in experiments only when in log phase of growth. The cells were incubated with HIV-1 (IIIB isolate, TCID50 10^4 IU/mL, at a multiplicity of infection of 0.1-0.01 IU/cell) for 1 hour at 37° C. and 5% CO2. The cells then were washed thoroughly to remove unabsorbed virions and resuspended at 4×10^5 cells/mL in complete medium. Aliquots (1 mL) were placed in wells of 24-well culture plates containing an equal volume of test compound (diluted in the culture medium). After a four day incubation at 37° C., cell density of uninfected cultures was determined by counting cells in a Coulter counter to assess toxicity of the test compound. A p24 antigen ELISA assay was used to determine the level of virus released in the medium of the HIV-infected cultures. The p24 antigen assay uses an HIV-1 anti-p24 specific monoclonal antibody as the capture antibody coated on 96 well plates. Following a sample incubation period, rabbit serum containing antibodies for HIV-1 p24 is used to tag any p24 "captured" onto the microtiter well surface. […] The cut-off for the p24 ELISA assay is 12.5 pg/mL. P24 in the culture medium was quantitated against a standard curve containing known amounts of p24. The effective (EC50) and inhibitory concentrations (for anti-HIV activity and cytotoxicity, respectively) were determined.

HIV-1 (IIIB isolate) [2] = assay: microbe, parasite or virus in culture; assay type: cell-based; conditions: for Therapeutic Index / therapeutic index (TI): 5760 min
Procedure: as §1

[3] = test system: chronically HIV-1 infected promonocytic cell line, U1; assay: Virus expression in chronically HIV-1 infected promonocytic U1 cells (p24 ELISA); assay type: cell-based; conditions: for induction of virus expression / alteration in the level of virus expression: 72 hours; for induction of virus expression: cultured alone; for alteration in the level of virus expression: in presence of PMA
Procedure: Therefore, compounds 4 and 5 were separately added for 72 hours to the chronically HIV-1 infected T cell line, ACH-2, and to the chronically HIV-1 infected promonocytic cell line, U1.
(§2) HIV-1 chronically infected T cell line, ACH-2, ^15 and HIV-1 chronically infected promonocytic cell line, U1 ^16 were continuously maintained in RPMI1640 with 10% fetal calf serum (FCS). For experiments, the cell lines were only used in log-phase of growth. Cells (1×10^6 cells/well) and either various concentrations of 4,5, AZT or media alone were added to 24-well plates in the presence or absence of PMA (10^-8 M). After 72 hours at 37° C. and 5% CO2, an aliquot of the cell-free supernatants was collected and analyzed for p24 antigen by ELISA.

[4] = molecular target: T1, HIV-1 reverse transcriptase (Human immunodeficiency virus type 1 group M subtype B, UniProt P04585); assay: HIV-1 reverse transcriptase, RNA-dependent DNA polymerase associated activity; assay type: biochemical; parameters: HIV-1 reverse transcriptase was purified; made in house; host or cells: Escherichia coli JM 109 containing pKRT 2 (plasmid provided by W. C. Summers, Yale University); conditions: for HIV-1 reverse transcriptase inhibitory activity: template-primer dependent, result in words; for IC50: mean ± standard deviation of three
Procedure: (§3) HIV-1 reverse transcriptase was purified using Escherichia coli JM 109 containing pKRT 2 kindly provided by W. C. Summers (Yale University).
(§4) Enzyme Assay. All reactions were developed in a total volume of 50 μl containing 50 mMTris HCl pH 7.8, 2 mM MgCl2, 100 μg/mL nuclease-free BSA, 1 mM dithiothreitol, 0.5 O.D.260 unit/mL of template-primer, and 330 nM of [^3 H]dNTP according to Cheng et al.

[5] = molecular target: T2, HIV reverse transcriptase associated RNase H (HIV-1 M:B_HXB2R, UniProt P04585); assay: HIV reverse transcriptase associated RNase H activity; assay type: biochemical
T2 construct: cut from Gag-Pol polyprotein

[6] = test system: chronically HIV-1 infected T cell line, ACH-2; assay: Virus expression in chronically HIV-1 infected T cell line ACH-2 (p24 ELISA); assay type: cell-based; conditions: 72 hours; for induction of virus expression: cultured alone; for alteration in the level of virus expression: in presence of PMA
Procedure: Data obtained by using chronically HIV-1 infected cell lines that are cultured with a test drug can give a sense of how these compounds may function in vivo if given to a latently HIV- infected individual. Therefore, compounds 4 and 5 were separately added for 72 hours to the chronically HIV-1 infected T cell line, ACH-2, and to the chronically HIV-1 infected promonocytic cell line, U1.
as §2

[7] = molecular target: T1, HIV-1 reverse transcriptase; assay: HIV-1 reverse transcriptase, DNA-dependent DNA polymerase associated activity; assay type: biochemical; parameters: HIV-1 reverse transcriptase was purified; made in house; host or cells: Escherichia coli JM 109 containing pKRT 2 (plasmid provided by W. C. Summers, Yale University); conditions: for inhibitory effect against RT-associated DNA polymerase activity: under certain conditions
Procedure: as §3, §4

[8] = molecular target: T1, HIV-1 reverse transcriptase; conditions: more with Poly(rC)-olig(dG) than with Poly(rA)-olig(dT); cited from earlier work
[9] = Homo sapiens, H9, Table I, cytotoxicity, uninfected H9 cells, read-out: IC50
[10] = template-primer poly(rA)-olig(dT)10
[11] = template-primer poly(rC)-olig(dG)12-18
[12] = Poly(rA)-poly(dT) as substrate, or Mg^+2 as divalent cation
[13] = Poly(rG)-poly(dC) as substrate, Mn^+2 (0.4 mM)
[14] = Human immunodeficiency virus 1, H9, text, acutely infected H9 cells, read-out: EC50 (anti-HIV activity)
[15] = Human immunodeficiency virus 1, Lymphocyte, Table I, acutely infected H9 lymphocytes, read-out: EC50
[16] = Human immunodeficiency virus 1, Lymphocyte, Table IA, acutely infected H9 lymphocytes, read-out: EC50
[17] = Poly(dA)-olig(dT) as template primer
[18] = Table II, template-primer printed poly(rA)-olig(dT)^10, mean ± standard deviation of three

SMILES | Therapeutic Index (HIV-1 (IIIB isolate) [2]; Table I, IC50/EC50) | Therapeutic Index (HIV-1 (IIIB isolate) [2]; Table IA, ratio IC50/EC50) | IC50 (H9 T cell line; [9]) [µg/mL] | induction of virus expression [3] | alteration in the level of virus expression [3] | p24 ([3]; +Media, 0.0064 μg/mL) [pg/mL] | p24 ([3]; +Media, 0.032 μg/mL) [pg/mL] | p24 ([3]; +Media, 0.16 μg/mL) [pg/mL] | p24 ([3]; +Media, 0.8 μg/mL) [pg/mL] | p24 ([3]; +Media, 4 μg/mL) [pg/mL] | p24 ([3]; +Media, 20 μg/mL) [pg/mL] | p24 ([3]; +PMA, 0.0064 μg/mL) | p24 ([3]; +PMA, 0.032 μg/mL) | p24 ([3]; +PMA, 0.16 μg/mL) | p24 ([3]; +PMA, 0.8 μg/mL) | p24 ([3]; +PMA, 4 μg/mL) | p24 ([3]; +PMA, 20 μg/mL) | HIV-1 reverse transcriptase inhibitory activity [4] | IC50 [4, 10] [nM] | IC50 [4, 11] [nM] | further results
COc1c(OCc2ccccc2)c(OCc2ccccc2)cc(CO)c1-c1c(CO)cc(OCc2ccccc2)c(OCc2ccccc2)c1OC [Compound 2, 4,4',5,5'-tetrakis(benzyloxy)-6,6'-dimethoxy-2,2'-dihydroxymethyl biphenyl] | – | – | – | – | – | – | – | – | – | – | – | – | – | – | – | – | – | – | – | – | anti-HIV activity (HIV-1 (IIIB isolate) [1]; parent compound, comparable to that of DDB): does possess anti-HIV activity
COC(=O)c1cc(OC)c2c(c1-c1c(C(=O)OC)cc(OC)c3c1OCO3)OCO2 [Compound 3, 4,4'-dimethoxy-5,6,5'6'-dimethylenedioxy-2,2'-dimethoxycarbonyl biphenyl, reference compound] | > 20 | > 20 | – | – | – | – | – | – | – | – | – | – | – | – | – | – | – | – | – | – | IC50 (H9 T cell line; Homo sapiens, H9): > 100 µg/mL; IC50 (H9 T cell line; T-cell): > 100 µg/mL; TI (HIV-1 (IIIB isolate) [1]; background section): > 20; EC50 (HIV-1 (IIIB isolate) [2]; Human immunodeficiency virus 1, IIIB, Lymphocyte): 5 µg/mL (≈ 12 µM)
COC(=O)c1cc(OC)c2c(c1-c1c3c(c(OC)c(Br)c1C(=O)OC)OCO3)OCO2 [Compound 4, 3-Bromo-4,4'-dimethoxy-5,6,5',6'-bimethylenedioxy-2,2'-dimethoxycarbonyl biphenyl] | > 190 | 190 | > 100 | no increase in the induction of virus expression | no alteration in the level of virus expression | 7 | 10 | 12 | 11 | 11 | 22 | 8,314 pg/mL | 7,200 pg/mL | 7,616 pg/mL | 8,774 pg/mL | 13,376 pg/mL | 10,746 pg/mL | template-primer HIV-1 reverse transcriptase inhibitory activity | 4500 ± 1000 | 2200 ± 600 | IC50 (H9 T cell line; T-cell, Table IA, concentration that causes a 50% reduction in total cell number): 100 µg/mL (≈ 201 µM); inhibition of HIV RT associated RNase H activity [5, 12]: no inhibition; inhibition of HIV RT associated RNase H activity [5, 13]: almost equal potency; inhibition of HIV RT associated RNase H activity ([5]; under certain conditions): Potent inhibitory effects; induction of virus expression [6]: no increase in the induction of virus expression; alteration in the level of virus expression [6]: no alteration in the level of virus expression; therapeutic index (TI) (HIV-1 (IIIB isolate) [2]): 190; EC50 (HIV-1 (IIIB isolate) [2]; [14]): 0.52 µg/mL (≈ 1.05 µM); EC50 (HIV-1 (IIIB isolate) [2]; [15]): 0.52 µg/mL (≈ 1.05 µM); EC50 (HIV-1 (IIIB isolate) [2]; [16]): 0.52 µg/mL (≈ 1.05 µM); IC50 [7, 17]: 56 nM; IC50 [7, 18]: 56 ± 3 nM; inhibitory effect against RT-associated DNA polymerase activity [7]: Potent inhibitory effects
COC(=O)c1c(Br)c(OC)c2c(c1-c1c3c(c(OC)c(Br)c1C(=O)OC)OCO3)OCO2 [Compound 5, 3,3'-Dibromo-4,4'-dimethoxy-5,6,5'6'-bimethylenedioxy-2,2'-dimethoxycarbonyl biphenyl] | > 480 | > 480 | > 100 | no increase in the induction of virus expression | no alteration in the level of virus expression | 17 | 15 | 13 | 14 | 16 | 15 | 7,590 pg/mL | 8,320 pg/mL | 9,850 pg/mL | 11,482 pg/mL | 10,598 pg/mL | 10,131 pg/mL | template-primer HIV-1 reverse transcriptase inhibitory activity | 1900 ± 900 | 11000 ± 500 | IC50 (H9 T cell line; T-cell, Table IA, concentration that causes a 50% reduction in total cell number, read-out: IC50): > 100 µg/mL; inhibition of HIV RT associated RNase H activity [5, 12]: no inhibition; inhibition of HIV RT associated RNase H activity [5, 13]: almost equal potency; inhibition of HIV RT associated RNase H activity ([5]; under certain conditions): Potent inhibitory effects; induction of virus expression [6]: no increase in the induction of virus expression; alteration in the level of virus expression [6]: no alteration in the level of virus expression; therapeutic index (TI) (HIV-1 (IIIB isolate) [2]): > 480; EC50 (HIV-1 (IIIB isolate) [2]; [14]): 0.23 µg/mL (≈ 0.399 µM); EC50 (HIV-1 (IIIB isolate) [2]; [15]): 0.23 µg/mL (≈ 0.399 µM); EC50 (HIV-1 (IIIB isolate) [2]; [16]): 0.23 µg/mL (≈ 0.399 µM); IC50 [7, 17]: 48 nM; IC50 [7, 18]: 48 ± 4 nM; inhibitory effect against RT-associated DNA polymerase activity [7]: Potent inhibitory effects
Cc1ccnc2c1NC(=O)c1cccnc1N2C1CC1 [Nevarapine] | – | – | – | – | – | – | – | – | – | – | – | – | – | – | – | – | – | – | – | – | inhibitory activity using Poly(rC)-olig(dG) versus Poly(rA)-olig(dT) [8]: more inhibitory activity
